# Source: patent US10695337B2, “Piperidin-4-yl azetidine derivatives as JAK1 inhibitors” (Incyte Corporation, priority 2010, dated 2020)
# Biological target: human JAK1 (a.a. 837-1142)
# Assay: In vitro JAK kinase assay (HTRF, phosphorylation of a biotinylated peptide), JAK1
# Assay type: biochemical
# Details: measured at 1 mM ATP; JAK2 IC50 / JAK1 IC50
# In short: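 N-terminal His-tagged catalytic domains, baculovirus-expressed in insect cells, phosphorylated a biotinylated peptide for 1 hr at room temperature. EDTA stop was followed by SA-APC and Eu-Py20 antibody for 40 minutes, with phosphopeptide read by HTRF.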
row,SMILES,IC50 Ratio JAK2/JAK1
1,N#CCC1(n2cc(-c3c(C#N)cnc4[nH]ccc34)cn2)CN(C2CCN(C(=O)c3cc(Br)ccc3Br)CC2)C1 [Example 335],2.4
2,N#CCC1(n2cc(-c3c(C#N)cnc4[nH]ccc34)cn2)CN(C2CCN(C(=O)c3cc(Br)cc(Br)c3)CC2)C1 [Example 336],2.9
3,"N#CCC1(n2cc(-c3c(C#N)cnc4[nH]ccc34)cn2)CN(C2CCN(C(=O)c3cc(C#N)ccc3C#N)CC2)C1 [Example 337, 2-[(4-{3-(cyanomethyl)-3-[4-(5-cyano-1H-pyrrolo[2,3-b]pyridin-4-yl)-1H-pyrazol-1-yl]azetidin-1-yl}piperidin-1-yl)carbonyl]terephthalonitrile]",6.0
4,"N#CCC1(n2cc(-c3c(C#N)cnc4[nH]ccc34)cn2)CN(C2CCN(C(=O)c3cc(C#N)cc(C#N)c3)CC2)C1 [Example 338, 5-[(4-{3-(cyanomethyl)-3-[4-(5-cyano-1H-pyrrolo[2,3-b]pyridin-4-yl)-1H-pyrazol-1-yl]azetidin-1-yl}piperidin-1-yl)carbonyl]isophthalonitrile]",7.4
5,"N#CCC1(n2cc(-c3c(C#N)cnc4[nH]ccc34)cn2)CN(C2CCN(C(=O)c3c(F)cc(C#N)cc3F)CC2)C1 [Example 340, 4-{1-[1-[1-(4-cyano-2,6-difluorobenzoyl)piperidin-4-yl]-3-(cyanomethyl)azetidin-3-yl]-1H-pyrazol-4-yl}-1H-pyrrolo[2,3-b]pyridine-5-carbonitrile]",1.4
6,"N#CCC1(n2cc(-c3c(C#N)cnc4[nH]ccc34)cn2)CN(C2CCN(C(=O)c3cc(C(F)(F)F)ncc3Cl)CC2)C1 [Example 341, 4-{1-[1-{1-[5-chloro-2-(trifluoromethyl)isonicotinoyl]piperidin-4-yl}-3-(cyanomethyl)azetidin-3-yl]-1H-pyrazol-4-yl}-1H-pyrrolo[2,3-b]pyridine-5-carbonitrile]",3.2
7,"N#CCC1(n2ccc(-c3ncnc4[nH]ccc34)c2)CN(C2CCN(C(=O)c3nc(C(F)(F)F)cs3)CC2)C1 [Example 346, [3-[3-(7H-Pyrrolo[2,3-d]pyrimidin-4-yl)-1H-pyrrol-1-yl]-1-(1-{[4-(trifluoromethyl)-1,3-thiazol-2-yl]carbonyl}piperidin-4-yl)azetidin-3-yl]acetonitrile]",5.9
8,"N#CCC1(n2ccc(-c3ncnc4[nH]ccc34)c2)CN(C2CCN(C(=O)c3cnc(C(F)(F)F)cn3)CC2)C1 [Example 347, [3-[3-(7H-Pyrrolo[2,3-d]pyrimidin-4-yl)-1H-pyrrol-1-yl]-1-(1-{[5-(trifluoromethyl)pyrazin-2-yl]carbonyl}piperidin-4-yl)azetidin-3-yl]acetonitrile]",2.7
9,"CS(=O)(=O)N1CCC(N2CC(CC#N)(n3ccc(-c4ncnc5[nH]ccc45)c3)C2)CC1 [Example 348, {1-[1-(Methylsulfonyl)piperidin-4-yl]-3-[3-(7H-pyrrolo[2,3-d]pyrimidin-4-yl)-1H-pyrrol-1-yl]azetidin-3-yl}acetonitrile]",3.2
10,"N#CCC1(n2cc(-c3ccnc4[nH]ccc34)cn2)CN(C2CCN(C(=O)c3nc(C(F)(F)F)cs3)CC2)C1 [Example 350, [3-[4-(1H-Pyrrolo[2,3-b]pyridin-4-yl)-1H-pyrazol-1-yl]-1-(1-{[4-(trifluoromethyl)-1,3-thiazol-2-yl]carbonyl}piperidin-4-yl)azetidin-3-yl]acetonitrile]",15.0
11,"CS(=O)(=O)N1CCC(N2CC(CC#N)(n3cc(-c4ccnc5[nH]ccc45)cn3)C2)CC1 [Example 351, {1-[1-(Methylsulfonyl)piperidin-4-yl]-3-[4-(1H-pyrrolo[2,3-b]pyridin-4-yl)-1H-pyrazol-1-yl]azetidin-3-yl}acetonitrile]",3.8
12,"N#CCC1(n2cc(-c3c(F)cnc4[nH]ccc34)cn2)CN(C2CCN(C(=O)c3ccnc(C(F)(F)F)n3)CC2)C1 [Example 353, [3-[4-(5-Fluoro-1H-pyrrolo[2,3-b]pyridin-4-yl)-1H-pyrazol-1-yl]-1-(1-{[2-(trifluoromethyl)pyrimidin-4-yl]carbonyl}piperidin-4-yl)azetidin-3-yl]acetonitrile]",5.0
13,"N#CCC1(n2cc(-c3c(F)cnc4[nH]ccc34)cn2)CN(C2CCN(C(=O)c3cnc(C(F)(F)F)cn3)CC2)C1 [Example 354, [3-[4-(5-Fluoro-1H-pyrrolo[2,3-b]pyridin-4-yl)-1H-pyrazol-1-yl]-1-(1-{[5-(trifluoromethyl)pyrazin-2-yl]carbonyl}piperidin-4-yl)azetidin-3-yl]acetonitrile]",2.1
14,"CS(=O)(=O)N1CCC(N2CC(CC#N)(n3cc(-c4c(F)cnc5[nH]ccc45)cn3)C2)CC1 [Example 355, {3-[4-(5-Fluoro-1H-pyrrolo[2,3-b]pyridin-4-yl)-1Hpyrazol-1-yl]-1-[1-(methylsulfonyl)piperidin-4-yl]azetidin-3-yl}acetonitrile]",3.1
15,"N#CCC1(n2cc(-c3c(C#N)cnc4[nH]ccc34)cn2)CN(C2CCN(C(=O)c3cc(C(F)(F)F)ncc3F)CC2)C1 [Example 356, 4-[1-(3-(Cyanomethyl)-1-{1-[5-fluoro-2-(trifluoromethyl)isonicotinoyl]piperidin-4-yl}azetidin-3-yl)-1H-pyrazol-4-yl]-1H-pyrrolo[2,3-b]pyridine-5-carbonitrile]",5.8
16,"CS(=O)(=O)N1CCC(N2CC(CC#N)(n3cc(-c4c(C#N)cnc5[nH]ccc45)cn3)C2)CC1 [Example 357, 4-(1-{3-(Cyanomethyl)-1-[1-(methylsulfonyl)piperidin-4-yl]azetidin-3-yl}-1H-pyrazol-4-yl)-1H-pyrrolo[2,3-b]pyridine-5-carbonitrile]",3.8
17,"CN(C)Cc1cc(C(=O)N2CCC(N3CC(CC#N)(n4cc(-c5ncnc6[nH]ccc56)cn4)C3)CC2)nc(C(F)(F)F)n1 [Example 370, {1-(1-{[6-[(dimethylamino)methyl]-2-(trifluoromethyl)pyrimidin-4-yl]carbonyl}piperidin-4-yl)-3-[4-(7H-pyrrolo[2,3-d]pyrimidin-4-yl)-1H-pyrazol-1-yl]azetidin-3-yl}acetonitrile]",55
18,CCN(C)Cc1cc(C(=O)N2CCC(N3CC(CC#N)(n4cc(-c5ncnc6[nH]ccc56)cn4)C3)CC2)nc(C(F)(F)F)n1 [Example 374],50

# The remaining lines, values ahead:
row,IC50 Ratio JAK2/JAK1,SMILES
1,5.7,"N#CCC1(n2cc(-c3ncnc4[nH]ccc34)cn2)CN(C2CCN(C(=O)c3cc(C(F)(F)F)ncc3Cl)CC2)C1 [Example 342, {1-{1-[5-Chloro-2-(trifluoromethyl)isonicotinoyl]piperidin-4-yl}-3-[4-(7H-pyrrolo[2,3-d]pyrimidin-4-yl)-1H-pyrazol-1-yl]azetidin-3-yl}acetonitrile]"
2,5.5,"N#CCC1(n2cc(-c3ncnc4[nH]ccc34)cn2)CN(C2CCN(C(=O)c3cc(C(F)(F)F)ncc3F)CC2)C1 [Example 343, {1-{1-[5-Fluoro-2-(trifluoromethyl)isonicotinoyl]piperidin-4-yl}-3[4-(7H-pyrrolo[2,3-d]pyrimidin-4-yl)-1H-pyrazol-1-yl]azetidin-3-yl}acetonitrile]"
3,20,"N#CCC1(n2cc(-c3ncnc4[nH]ccc34)cn2)CN(C2CCN(C(=O)c3cc(CO)nc(C(F)(F)F)n3)CC2)C1 [Example 381, {1-(1-{[6-(hydroxymethyl)-2-(trifluoromethyl)pyrimidin-4-yl]carbonyl}piperidin-4-yl)-3-[4-(7H-pyrrolo[2,3-d]pyrimidin-4-yl)-1H-pyrazol-1-yl]azetidin-3-yl}acetonitrile]"
4,7.7,"CCCOC(=O)N1CCC(N2CC(CC#N)(n3cc(-c4ncnc5[nH]ccc45)cn3)C2)CC1 [Example 386, Propyl 4-{3-(cyanomethyl)-3-[4-(7H-pyrrolo[2,3-d]pyrimidin-4-yl)-1H-pyrazol-1-yl]azetidin-1-yl}piperidine-1-carboxylate]"
5,9.7,"N#CCC1(n2cc(-c3ncnc4[nH]ccc34)cn2)CN(C2CCN(C(=O)OCC3CCC3)CC2)C1 [Example 387, Cyclobutylmethyl 4-{3-(cyanomethyl)-3-[4-(7H-pyrrolo[2,3-d]pyrimidin-4-yl)-1H-pyrazol-1-yl]azetidin-1-yl}piperidine-1-carboxylate]"
6,7.6,"CCOC(=O)N1CCC(N2CC(CC#N)(n3cc(-c4ncnc5[nH]ccc45)cn3)C2)CC1 [Example 388, ethyl 4-{3-(cyanomethyl)-3-[4-(7H-pyrrolo[2,3-d]pyrimidin-4-yl)-1H-pyrazol-1-yl]azetidin-1-yl}piperidine-1-carboxylate]"
7,6.5,"N#CCC1(n2cc(-c3ncnc4[nH]ccc34)cn2)CN(C2CCN(C(=O)OCc3ccccc3)CC2)C1 [Example 389, benzyl 4-{3-(cyanomethyl)-3-[4-(7H-pyrrolo[2,3-d]pyrimidin-4-yl)-1H-pyrazol-1-yl]azetidin-1-yl}piperidine-1-carboxylate]"
8,8.3,"CC(C)COC(=O)N1CCC(N2CC(CC#N)(n3cc(-c4ncnc5[nH]ccc45)cn3)C2)CC1 [Example 390, isobutyl 4-{3-(cyanomethyl)-3-[4-(7H-pyrrolo[2,3-d]pyrimidin-4-yl)-1H-pyrazol-1-yl]azetidin-1-yl}piperidine-1-carboxylate]"
9,5.6,"CC1(COC(=O)N2CCC(N3CC(CC#N)(n4cc(-c5ncnc6[nH]ccc56)cn4)C3)CC2)CC1 [Example 392, (1-methylcyclopropyl)methyl 4-{3-(cyanomethyl)-3-[4-(7H-pyrrolo[2,3-d]pyrimidin-4-yl)-1H-pyrazol-1-yl]azetidin-1-yl}piperidine-1-carboxylate]"
10,7.1,"N#CCC1(n2cc(-c3ncnc4[nH]ccc34)cn2)CN(C2CCN(C(=O)OCc3ccc(F)cc3F)CC2)C1 [Example 393, 2,4-difluorobenzyl 4-{3-(cyanomethyl)-3-[4-(7H-pyrrolo[2,3-d]pyrimidin-4-yl)-1H-pyrazol-1-yl]azetidin-1-yl}piperidine-1-carboxylate]"
